In US12144821B1, “Selective 3-prenyl 5-methyl ether, 7-o-rhamnoside flavone for the treatment of hepatic cancer” (KING FAISAL UNIVERSITY, priority 2024, dated 2024):

Tests used:
Assay type in all cases: cell-based, human
[1] = tested on: HepG2 cells; experiment: Migration assay (wound closure); details: non-cytotoxic concentrations, 24 hours, FIGS. 2A-2B
Description: (§1) During the metastatic cascade of carcinomas, tumor migration and invasion is the first and most important steps. It involves profound changes in cell adhesion, allowing tumour cells to dissociate and migrate from the primary site. […] Several essential steps of metastasis, including migration (FIGS. 2A-2B) invasion (FIG. 3A-3B) of human liver cancer cells, are inhibited by the 3-prenyl 5-methyl ether, 7-O-rhamnoside.
(§2) The migration and invasion assays were conducted by photographing the cells that migrated the membrane (200× magnification). As illustrated in FIGS. 2A-2B HepG2 cells were treated with 3-prenyl 5-methyl ether, 7-O-rhamnoside at indicated doses for 24 hours. The percentage inhibition of migrating cells was quantified and expressed based on untreated cells (control) represented 100%. The migration was determined by the areas of the wound closure calculated from three microscopic fields per sample.

[2] = tested on: HepG2 cancer cell line; experiment: Cell viability assay (MTT), antiproliferative screening; details: FIGS. 1A-1C
Description: Cells (HepG2) were provided from the American Type Culture Collection (ATCC) unless otherwise stated. Cells were grown in ATCC-formulated specific DMEM/F12 medium for each cell line with supplements of 5% fetal bovine serum, 10 U/ml penicillin, 10 μg/ml streptomycin, and 4% glutamine. All cell lines were placed in a humidified incubator a 37° C. in an atmosphere of 5% CO2 and 95% air. Cells were cultured into two groups. One as control cells and the other as cell lines treated for one day (3-prenyl 5-methyl ether, 7-O-rhamnoside-treated cells).
The cell viability will be tested using MTT. […] The culture supernatant was removed, the remaining MTT formazan crystals was dissolved in 400 μL of DMSO, and the absorbance was measured at 570 nm using an ELISA micro-plate reader (Bio-Tek Instruments, Winooski, VT, USA). The effect of 3-prenyl 5-methyl ether, 7-O-rhamnoside on cell viability was assessed as the percentage of viable cells compared with the vehicle-treated control cells, which were arbitrarily designated as 100%.
The cells were treated with increasing concentrations of 3-prenyl 5-methyl ether, 7-O-rhamnoside, (0-5, 10, 15, 20 and 25 μmol/mL for 24,48 and 72 h. The viability was assessed using the MTT assay. Values are mean±SD of three independent experiments. (p<0.01 compared untreated cells).

[3] = tested on: HepG2 cells; experiment: Invasion assay; details: non-cytotoxic concentrations, FIGS. 3A-3B
Description: as §1, §2
As illustrated in FIGS. 3A-3B, invasiveness was determined by counting cells in three microscopic fields per sample. The inhibitory percentage of invading cells was quantified and expressed with untreated cells (control) representing 100%. Values are mean±SD of three independent experiments. (p<0.01 compared untreated cells).

COc1cc(OC2OC(C)C(O)C(O)C2O)cc2oc(-c3ccc(O)cc3)c(CC=C(C)C)c(=O)c12 (stereo not shown) [3-prenyl 5-methyl ether, 7-O-rhamnoside, apigenin 3-prenyl 5-methyl ether, 7-O-rhamnoside]
migration of human liver cancer cells [1]: inhibited
cytotoxicity for the HepG2 cancer cell line (cell viability, MTT) ([2]; 0, 5, 10, 15, 20 and 25 μmol, 24, 48 and 72 hrs): potentially cytotoxic
dose-dependent potentiation / enhancement of anti-proliferative effects ([2]; seen at both 15 and 20 μmol): Potentiation
invasion of human liver cancer cells [3]: inhibited
